For orientation: stoichiometry N means the number of molecules, sites or subunits per partner or assembly. By Kd is commonly meant a measure of binding affinity in units of concentration.

Experiment [1] has as its target T1, GltPh (Pyrococcus horikoshii, UniProt O59010, D37H/K40H/K55C/K125H/K132H/K223H/K264H/C321A/A364C/E368H).
T1 construct: gene PH1295; C-terminal His8 cut by thrombin; E. coli DH10B; homotrimer; DDM (ITC) or MSP1E3 nanodiscs (cryo-EM)
T1 sequence (O59010 1-425 D37H/K40H/K55C/K125H/K132H/K223H/K264H/C321A/A364C/E368H limits assumed): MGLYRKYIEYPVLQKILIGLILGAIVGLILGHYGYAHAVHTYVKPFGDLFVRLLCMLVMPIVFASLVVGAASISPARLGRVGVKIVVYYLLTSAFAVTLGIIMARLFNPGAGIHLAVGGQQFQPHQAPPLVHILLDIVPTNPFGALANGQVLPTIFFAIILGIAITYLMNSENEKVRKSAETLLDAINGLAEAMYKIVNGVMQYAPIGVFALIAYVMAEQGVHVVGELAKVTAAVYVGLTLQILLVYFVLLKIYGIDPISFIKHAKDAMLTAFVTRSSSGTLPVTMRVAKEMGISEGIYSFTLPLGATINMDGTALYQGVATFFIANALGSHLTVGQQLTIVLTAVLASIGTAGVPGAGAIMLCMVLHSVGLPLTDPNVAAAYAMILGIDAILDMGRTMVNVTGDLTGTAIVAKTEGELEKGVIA
The experiment in a line: cryo-EM structure. Type of experiment: binding. The settings on record: inward-facing, Hg2+-crosslinked K55C/A364C; MSP1E3 nanodiscs; 200 mM NaCl, 1 mM L-asp, pH 7.4.

For experiment [2], the target named is GltPh, the fully functional seven-histidine mutant referred to as wildtype (WT) (UniProt O59010). As to the kind of experiment: cryo-EM structure; single-particle cryo-EM of GltPh reconstituted into MSP1E3 nanodiscs (E. coli polar lipid extract : egg phosphatidylcholine 3:1); 20 mM Hepes/Tris pH 7.4, 200 mM NaCl with 1 mM L-asp, 10 mM DL-TBOA, 10 mM TFB-TBOA or NaCl only; 3D classes without symmetry, then C3 refinement.

The target of experiment [3] is T1, GltPh. The experiment in a line: isothermal titration calorimetry. The settings on record: inward-facing, Hg2+-crosslinked K55C/A364C; DDM; 200 mM NaCl, pH 7.4, 15 °C; n 0.8; structure in nanodiscs 3.71 Å. It is filed as binding. On the technique in general: Isothermal titration calorimetry measures the heat released or taken up as one component is titrated into another.

Experiment [4] concerns the target T2, GltPh (Pyrococcus horikoshii, UniProt O59010, D37H/K40H/K125H/K132H/K223H/K264H/E368H).
T2 construct: gene PH1295; C-terminal His8 cut by thrombin; E. coli DH10B; homotrimer; DDM (ITC) or MSP1E3 nanodiscs (cryo-EM)
T2 sequence (O59010 1-425 D37H/K40H/K125H/K132H/K223H/K264H/E368H limits assumed): T1 sequence (O59010 1-425 D37H/K40H/K55C/K125H/K132H/K223H/K264H/C321A/A364C/E368H limits assumed) with C55K, A321C, C364A
As to the kind of experiment: cryo-EM structure. Type of experiment: binding. The note with it: outward-facing state, MSP1E3 nanodiscs; 200 mM NaCl, 10 mM DL-TBOA, pH 7.4.

Experiment [5] has as its target GltPh-K55C/C321A/A364C, cross-linked with HgCl2 (GltPh^IFS) (UniProt O59010). As to the kind of experiment: cryo-EM structure; single-particle cryo-EM of GltPh reconstituted into MSP1E3 nanodiscs (E. coli polar lipid extract : egg phosphatidylcholine 3:1); 20 mM Hepes/Tris pH 7.4, 200 mM NaCl with 1 mM L-asp, 10 mM DL-TBOA, 10 mM TFB-TBOA or NaCl only; 3D classes without symmetry, then C3 refinement.

Numbering of substitutions follows the chain as printed.

With `N[C@@H](CC(=O)O)C(=O)O` [L-asp], in experiment [1], the cryo-EM structure entry is listed as “bound to L-asp (GltPh^IFS-Asp)”. The compound “GltPh, the fully functional seven-histidine mutant referred to as wildtype (WT) (from UniProt O59010 1-417) (natural protein)” yielded a stoichiometry N in experiment [2] of 3. `N[C@H](C(=O)O)[C@H](OCc1cccc(NC(=O)c2ccc(C(F)(F)F)cc2)c1)C(=O)O` [TFB-TBOA, (2S,3S)−3-[3-[4-(trifluoromethyl)benzoylamino]benzyloxy]aspartate] yielded a dissociation constant (Kd) in experiment [3] of 3.8 µM. Regarding `NC(C(=O)O)C(OCc1ccccc1)C(=O)O` (racemic) [DL-TBOA, DL-threo-β-benzyloxyaspartate], the cryo-EM structure result in experiment [4] is “wild type outward-facing GltPh in complex with TBOA (GltPh^OFS-TBOA)”. “GltPh-K55C/C321A/A364C, cross-linked with HgCl2 (GltPh^IFS) (from UniProt O59010 1-425) (natural protein)”: the stoichiometry N in experiment [5] came to 3.
